Tests used:
[1] = test system: ovariectomized estrogen primed gilt model; experiment: Dose response study of deslorelin in SAIB, LH release determined by RIA; assay type: in vivo, swine; settings: single injection of 50 mcg deslorelin in SAIB
Procedure: A dose response study was performed using deslorelin in SAIB in an ovariectomized estrogen primed gilt model (Barb, et al. (1999) Proceed. Int'l. Symp. Control. Rel. Bioact. Mater., 26).

[2] = test system: mature postpartum sows; experiment: Intravulvar deslorelin at estrus detection, estrus length, pregnancy rate and live piglets; assay type: in vivo, swine; settings: 50 μg deslorelin acetate intravulvar at first estrus detection
Procedure: Sows were assigned randomly in blocks of two to either control or to be injected intravulvar with 50 mcg of deslorelin in SAIB at the time of estrus detection for sows first detected in estrus in the a.m. and 12 hours later for those first detected in estrus in the p.m. Treated animals were bred Al upon detected estrus and again 24 hours later if still in estrus. Controls received a saline injection on first detected estrus behavior estrus detection and were bred according to the farm's normal procedures. Saline sows bred at detected estrus consistent with farm sows. Deslorelin sows injected intravulvar with 1 ml (50 μg deslorelin acetate) at first estrus detection and AI, then AI again if in estrus the next day. Live piglet number 0.6>in Deslorelin versus Saline sows.

CCNC(=O)[C@@H]1CCCN1C(=O)[C@H](CCCN=C(N)N)NC(=O)[C@H](CC(C)C)NC(=O)[C@@H](Cc1c[nH]c2ccccc12)NC(=O)[C@H](Cc1ccc(O)cc1)NC(=O)[C@H](CO)NC(=O)[C@H](Cc1c[nH]c2ccccc12)NC(=O)[C@H](Cc1cnc[nH]1)NC(=O)[C@@H]1CCC(=O)N1 [Deslorelin, deslorelin]
Time by which LH returned to base level [1]: ≤ 18 h | Live piglet number, greater in Deslorelin versus Saline sows (per litter) [2]: 0.6

— patent publication US20070197435A1, “Process for the synchronization of ovulation for timed breeding without heat detection” (priority 2006, published 2007)
